Data set [1] can be described thus: Antioxidant potential, ABTS assay. The note with it: compared to compound free blank. Here is the method:
(§1) To evaluate the potential of allyl HTT and 4-MSOB HTT to act as antioxidants, ABTS and DPPH were used as model radicals and Trolox as reference antioxidants based on Shalaby and Shanab ([28]). In total, 1.5 mg of ABTS and 0.26 mg potassium peroxodisulfate were dissolved in 4 mL of pure water and incubated in the dark overnight at room temperature. Afterward, 36 mL of MeOH were added to obtain the fresh ABTS working solution. In the case of the DPPH assay, 1.1 mg of DPPH were dissolved in 4 mL of MeOH and incubated for 2 h in the dark at 4°C, followed by the addition of 36 mL of MeOH to obtain the fresh DPPH working solution. Standards of Trolox, allyl HTT, and 4-MSOB HTT were prepared in water/MeOH (90/10, v/v%) at concentrations in the range of 6.25–100 μM. To detect the antioxidant potential, 100 μL of standard or water/MeOH (90/10, v/v%) as control were added to 1,000 μL of ABTS or DPPH working solution, and the extinction was measured directly after mixing and after 6 min of incubation in the dark with a spectrometer (UviLine 9100, Schott Instruments, Mainz, Germany) at 734 nm in the case of ABTS assay and 515 nm in DPPH assay (each prepared as duplicate). The results are reported as mean ± SD of the reduction of the extinction compared to the control.

The nature of data set [2]: Antioxidant potential, DPPH assay. The settings on record: compared to compound free blank. Here is the method:
as §1

Another data set concerns GSK-3β. The arrangement: method as in PMID 31553649. The note with it: read-out: IC50 (50% inhibition) to inhibit GSK-3β; cited from earlier work.
In another data set the test system is GSK-3α. The arrangement: method as in PMID 31553649. The note with it: read-out: IC50 (50% inhibition) to inhibit isoform GSK-3α; cited from earlier work.
On the set-up of data set [3]: method as in doi:10.1002/14356007.a09_001. The note with it: cited from earlier work.
On the set-up of data set [4]: method as in PMID 8000299, PMID 9865427. The note with it: 10–12 h urine after consumption of horseradish or a mustard paste; cited from earlier work.
The test system of a further data set is HepG2. The arrangement: method as in PMID 14578469. The note with it: HepG2, 72 h of incubation time; read-out: IC50 (50% inhibition of cell growth); cited from earlier work.
Data set [5] deals with NAD(P)H dehydrogenase quinone 1 (NQO1). As to the kind of experiment: NQO1 activity in HepG2 cells. It is filed as cell-based, human. The settings on record: 2 μM, 24 h, negative control 145 ± 8. The method, then: (§2) The effect of allyl HTT or 4-MSOB HTT on NAD(P)H dehydrogenase quinone 1 (NQO1) activity was tested for HepG2 cells and HCT116 pTRAF cells. HCT116 pTRAF is a cell line that was transfected with the pTRAF^Nrf2/HIF/NFκB [Johansson et al. ([29])], as described by Kipp et al. ([30]). HCT116 pTRAF cells were cultivated in McCoy's 5A medium + 1% penicillin/streptomycin + 10% FBS + 1% GlutaMAX + 0.2 mg/mL hygromycin B. HepG2 cells in RPMI medium were seeded in a 6-well-plate (sterile, Sarsted, Nümbrecht, Germany) with a density of 350,000 cells/well, and HCT116 pTRAF cells in culture medium without hygromycin B with a density of 100,000 cells/well. After 48 h of incubation under cell culture conditions, the medium was exchanged with the fresh medium as a negative control and a medium with concentrations of 1 μM and 100 μM of allyl HTT or 4-MSOB HTT. Medium containing 2 μM auranofin was used as a positive control. After 24 h of incubation under cell culture conditions, NQO1 activity was analyzed according to Müller et al. ([31]), and the results were reported as mean ± SD. Additionally, the t-test for independent samples per variable was performed to test if concentration-dependent differences exist.

Data set [6] has the same test system. Nature of the data set: NQO1 activity in HCT116 pTRAF cells. It is filed as cell-based. The note with it: 2 μM, 24 h, negative control 51 ± 5. Here is the method:
as §2

Data set [7] has as its system Nrf2 target gene expression in alveolar macrophages and bronchial epithelial cells. The settings on record: intervention with 150 μM; cited from earlier work.
In a further data set the test system is endothelial cells. The settings on record: cited from earlier work.
In data set [8] the test system is cultured hepatocytes from human liver transplants. The note with it: range of 10 μM and 50 μM; cited from earlier work.
The conditions of data set [9]: cited from earlier work.

The source of these data is PMC9354954, “Assessing Bioavailability and Bioactivity of 4-Hydroxythiazolidine-2-Thiones, Newly Discovered Glucosinolate Degradation Products Formed During Domestic Boiling of Cabbage” (Frontiers in Nutrition, 2022).

The term IC50 denotes the concentration that inhibits the measured activity by half.

For `Cc1c(C)c2c(c(C)c1O)CCC(C)(C(=O)O)O2` (racemic) [Trolox, (±)-6-hydroxy-2,5,7,8-tetramethylchromane-2-carboxylic acid, reference compound], the “Relative signal reduction of the extinction value of the radical ABTS” value came out at 1.3 ± 0.4% in data set [1] (6.25 µM); 1.9 ± 0.4% in data set [1] (12.5 µM); 9.3 ± 0.5% in data set [1] (25 µM); 16.5 ± 0.4% in data set [1] (50 µM); 31.2 ± 0.4% in data set [1] (100 µM). Besides, the “Relative signal reduction of the extinction value of the radical DPPH” value is recorded as 0.8 ± 0.3% in [2] (6.25 µM); 2.8 ± 0.3% in data set [2] (12.5 µM); 3.5 ± 0.4% in data set [2] (25 µM); 8.8 ± 0.6% in [2] (50 µM); 17.5 ± 1.5% in data set [2] (100 µM).
With `OC1(c2ccccc2)CSC(=S)N1Cc1ccncc1` (stereo not shown) [COB-187], the IC50 was 0.011 µM in the data set with GSK-3β and 0.022 µM in the data set on GSK-3α.
As for `CN1CCSC1=S` [N-methyl-2-thiazolidinethione], the toxicity entry in [3] is listed as “low toxicity”.
With `C=CCN=C=S` [allyl ITC, allyl isothiocyanate], the “recovery of formed allyl ITC metabolites in urine” value in data set [4] is on record as 42–54%. In addition, the IC50 with HepG2 was 36 µM.
Consider `CC(=O)OC[C@H]1O[C@@H]([S-])[C@H](OC(C)=O)[C@@H](OC(C)=O)[C@@H]1OC(C)=O.CCP(CC)CC.[Au+]` [auranofin, 1-thio-β-D-glucopyranosatotriethyl phosphine gold-2,3,4,6-tetraacetate], for which the NQO1 activity in data set [5] amounted to 153 ± 4 mU/mg protein; in [6], 114 ± 7 mU/mg protein.
In the case of `C[S+]([O-])CCCCN=C=S` (stereo not shown) [sulforaphane], the “stimulation in Nrf2 target gene expression” value in data set [7] was “no stimulation”. Besides, in the data set with endothelial cells, the “concentrations inducing apoptosis and cytotoxicity” value is 20 to 40 µM. Also, the cytotoxicity result in data set [8] is “no significant cytotoxicity”. In addition, the IC50 in the data set on HepG2 was 13 µM. Moreover, the bioavailability result in data set [9] is “approximately 40%”.
